Assays:
[1] = tested on: P. aeruginosa (Gent-R) CAN-ICU 62308; assay: MIC, broth macrodilution (CLSI), P. aeruginosa CAN-ICU 62308; type: cell-based, Pseudomonas aeruginosa
Description: (§1) All compounds were tested against American Type Culture Collection (ATCC) reference strains as well as clinical isolates from the Canadian Intensive Care Unit (CAN-ICU) study (Zhanel, et al., 2008). […] Antibacterial activity against Gram-positive and Gram-negative microorganisms was performed via broth macrodilution tests using CLSI methodology (Clinical and Laboratory Standards Institute, 2006). The minimum inhibitory concentration (MIC) in μg/mL of the aminoglycoside-derived amphiphilic polycarbamates and polyethers were determined using established methods (Clinical and Laboratory Standards Institute, 2006) and are shown in Tables 1 and 2, respectively.

S. pneumoniae ATCC 13883 = assay: MIC, broth macrodilution (CLSI), S. pneumoniae ATCC 13883; type: cell-based
Description: as §1

[2] = tested on: S. epidermidis ATCC 14990; assay: MIC, broth macrodilution (CLSI), S. epidermidis; type: cell-based, Staphylococcus epidermidis; settings: footnote ATCC 1490
Description: as §1

S. aureus ATCC 29213 = assay: MIC, broth macrodilution (CLSI), S. aureus ATCC 29213; type: cell-based, Staphylococcus aureus
Description: as §1

[3] = tested on: Stenotrophomonas maltophilia (CAN-ICU 62585); assay: MIC, broth macrodilution (CLSI), S. maltophilia; type: cell-based; settings: S. maltophilia, footnote CAN-ICU 62584
Description: as §1

[4] = tested on: Acinetobacter baumanni (CAN-ICU 63169); assay: MIC, broth macrodilution (CLSI), A. baumannii; type: cell-based; settings: A. baumannii CAN-ICU 63169
Description: as §1

[5] = tested on: E. coli (Gentamicin-resistant) CAN-ICU 61714; assay: MIC, broth macrodilution (CLSI), gentamicin-resistant E. coli; type: cell-based; settings: footnote ATCC 6174 (gentamicin resistant)
Description: as §1

E. coli ATCC 25922 = assay: MIC, broth macrodilution (CLSI), E. coli ATCC 25922; type: cell-based
Description: as §1

[6] = tested on: Streptococcus pneumoniae ATCC 49619; assay: MIC, broth macrodilution (CLSI), S. pneumoniae ATCC 49619; type: cell-based
Description: as §1

[7] = tested on: methicillin-resistant Staphylococcus aureus (MRSA) ATCC 33592; assay: MIC, broth macrodilution (CLSI), MRSA ATCC 33592; type: cell-based; settings: MRSA, methicillin-resistant S. aureus ATCC 33592
Description: as §1

[8] = tested on: E. coli (Amikacin MIC 32) CAN-ICU 63074; assay: MIC, broth macrodilution (CLSI), E. coli CAN-ICU 63074; type: cell-based
Description: as §1

[9] = tested on: methicillin-resistant Staphylococcus epidermidis (MRSE) CAN-ICU 61589; assay: MIC, broth macrodilution (CLSI), MRSE; type: cell-based; settings: methicillin-resistant S. epidermidis, footnote (ATCC 14990)
Description: as §1

[10] = tested on: Pseudomonas aeruginosa ATCC 27853; assay: MIC, broth macrodilution (CLSI), P. aeruginosa ATCC 27853; type: cell-based
Description: as §1

| Compound | Minimal Inhibitory Concentration (MIC) [1] [µg/mL] | Minimal Inhibitory Concentration (MIC) (S. pneumoniae ATCC 13883) [µg/mL] | Minimal Inhibitory Concentration (MIC) [2] [µg/mL] | Minimal Inhibitory Concentration (MIC) (S. aureus ATCC 29213) [µg/mL] | Minimal Inhibitory Concentration (MIC) [3] [µg/mL] | Minimal Inhibitory Concentration (MIC) [4] [µg/mL] | Minimal Inhibitory Concentration (MIC) [5] [µg/mL] | Minimal Inhibitory Concentration (MIC) (E. coli ATCC 25922) [µg/mL] | Minimal Inhibitory Concentration (MIC) [6] [µg/mL] | Minimal Inhibitory Concentration (MIC) [7] [µg/mL] | Minimal Inhibitory Concentration (MIC) [8] [µg/mL] | Minimal Inhibitory Concentration (MIC) [9] [µg/mL] | Minimal Inhibitory Concentration (MIC) [10] [µg/mL] |
| --- | --- | --- | --- | --- | --- | --- | --- | --- | --- | --- | --- | --- | --- |
| NCC1OC(OC2C(N)CC(N)C(OC3OC(COCc4ccc(Cl)cc4)C(OCc4ccc(Cl)cc4)C(N)C3OCc3ccc(Cl)cc3)C2OCc2ccc(Cl)cc2)C(OCc2ccc(Cl)cc2)C(OCc2ccc(Cl)cc2)C1OCc1ccc(Cl)cc1.O=C(O)C(F)(F)F.O=C(O)C(F)(F)F.O=C(O)C(F)(F)F.O=C(O)C(F)(F)F (stereo not drawn) [Compound 16] | >128 | >128 | 32 | 32 | >128 | >128 | 128 | 128 | 64 | 32 | 64 | 16 | >128 |
| CC(C)(C)c1ccc(COCC2OC(OC3C(OCc4ccc(C(C)(C)C)cc4)C(N)CC(N)C3OC3OC(CN)C(OCc4ccc(C(C)(C)C)cc4)C(OCc4ccc(C(C)(C)C)cc4)C3N)C(OCc3ccc(C(C)(C)C)cc3)C2OC2OC(CN)C(OCc3ccc(C(C)(C)C)cc3)C(OCc3ccc(C(C)(C)C)cc3)C2N)cc1.O=C(O)C(F)(F)F.O=C(O)C(F)(F)F.O=C(O)C(F)(F)F.O=C(O)C(F)(F)F.O=C(O)C(F)(F)F.O=C(O)C(F)(F)F (stereo not drawn) [Compound 13] | 128 | >128 | 64 | 128 | >128 | >128 | 128 | 128 | 256 | 128 | 128 | 64 | 256 |
| NCC1OC(OC2C(N)CC(N)C(OCc3ccc(Cl)cc3)C2OC2OC(COCc3ccc(Cl)cc3)C(OC3OC(CN)C(OCc4ccc(Cl)cc4)C(OCc4ccc(Cl)cc4)C3N)C2OCc2ccc(Cl)cc2)C(N)C(OCc2ccc(Cl)cc2)C1OCc1ccc(Cl)cc1.O=C(O)C(F)(F)F.O=C(O)C(F)(F)F.O=C(O)C(F)(F)F.O=C(O)C(F)(F)F.O=C(O)C(F)(F)F.O=C(O)C(F)(F)F (stereo not drawn) [Compound 12] | >128 | 128 | 32 | 64 | >128 | >128 | >128 | 128 | 128 | 64 | 64 | 64 | >128 |
| CN(C)c1ccc(NC(=O)OCC2OC(OC3C(OC(=O)Nc4ccc(N(C)C)cc4)C(N)CC(N)C3OC3OC(CN)C(OC(=O)Nc4ccc(N(C)C)cc4)C(OC(=O)Nc4ccc(N(C)C)cc4)C3N)C(OC(=O)Nc3ccc(N(C)C)cc3)C2OC2OC(CN)C(OC(=O)Nc3ccc(N(C)C)cc3)C(OC(=O)Nc3ccc(N(C)C)cc3)C2N)cc1.O=C(O)C(F)(F)F.O=C(O)C(F)(F)F.O=C(O)C(F)(F)F.O=C(O)C(F)(F)F.O=C(O)C(F)(F)F.O=C(O)C(F)(F)F.O=C(O)C(F)(F)F.O=C(O)C(F)(F)F.O=C(O)C(F)(F)F.O=C(O)C(F)(F)F.O=C(O)C(F)(F)F.O=C(O)C(F)(F)F.O=C(O)C(F)(F)F (stereo not drawn) [Compound 4] | 128 | >256 | 8 | 16 | 256 | >256 | 128 | 128 | 32 | 16 | 64 | 8 | 128 |
| CCCCCCNC(=O)OCC1OC(OC2C(N)CC(N)C(OC3OC(CN)C(OC(=O)NCCCCCC)C(OC(=O)NCCCCCC)C3OC(=O)NCCCCCC)C2OC(=O)NCCCCCC)C(OC(=O)NCCCCCC)C(N)C1OC(=O)NCCCCCC.O=C(O)C(F)(F)F.O=C(O)C(F)(F)F.O=C(O)C(F)(F)F.O=C(O)C(F)(F)F (stereo not drawn) [Compound 6] | 32 | >256 | 16 | 32 | >256 | >256 | 64 | 128 | 128 | 64 | 64 | 32 | 128 |
| NC[C@H]1O[C@H](O[C@H]2[C@H](O)[C@@H](O[C@H]3O[C@H](CO)[C@@H](O)[C@H](N)[C@H]3O)[C@H](N)C[C@@H]2N)[C@H](O)[C@@H](O)[C@@H]1O [Kanamycin A, reference compound] | >512 | 1 | 2 | 4 | >512 | 32 | 16 | 8 | 8 | >512 | 32 | 128 | >512 |
| NC[C@@H]1O[C@H](O[C@H]2[C@@H](O)[C@H](O[C@@H]3[C@@H](O)[C@H](N)C[C@H](N)[C@H]3O[C@H]3O[C@H](CN)[C@@H](O)[C@H](O)[C@H]3N)O[C@@H]2CO)[C@H](N)[C@@H](O)[C@@H]1O [Neomycin B, reference compound] | 512 | 1 | 0.25 | 1 | >512 | 64 | 8 | 4 | 32 | 256 |  | 0.5 | 512 |

From patent US8999942B2, “Polyol modified aminoglycoside-lipid conjugates” (University of Manitoba, priority 2010, dated 2015)
